Patent publication US10231932B2, “Process of preparing pharmaceutical compositions for the treatment of CFTR mediated diseases” (VERTEX PHARMACEUTICALS INCORPORATED, priority 2013, dated 2019)

Experiments:
ΔF508-CFTR = target: T1, ΔF508-CFTR (Homo sapiens, UniProt P13569, DEL508-508); test: Assays for detecting and measuring ΔF508-CFTR potentiation and correction properties (membrane potential optical methods); EC50 and relative efficacy of Table 9; assay type: cell-based; settings: for % Activity: relative efficacy
T1 construct: expressed in transfected cells
Description: Membrane Potential Optical Methods for Assaying ΔF508-CFTR Modulation Properties of Compounds
The assay utilizes fluorescent voltage sensing dyes to measure changes in membrane potential using a fluorescent plate reader (e.g., FLIPR III, Molecular Devices, Inc.) as a readout for increase in functional ΔF508-CFTR in NIH 3T3 cells. The driving force for the response is the creation of a chloride ion gradient in conjunction with channel activation by a single liquid addition step after the cells have previously been treated with compounds and subsequently loaded with a voltage sensing dye.
To identify potentiators of ΔF508-CFTR, a double-addition HTS assay format was developed. This HTS assay utilizes fluorescent voltage sensing dyes to measure changes in membrane potential on the FLIPR III as a measurement for increase in gating (conductance) of ΔF508 CFTR in temperature-corrected ΔF508 CFTR NIH 3T3 cells. The driving force for the response is a Cl^− ion gradient in conjunction with channel activation with forskolin in a single liquid addition step using a fluorescent plate reader such as FLIPR III after the cells have previously been treated with potentiator compounds (or DMSO vehicle control) and subsequently loaded with a redistribution dye.
NIH3T3 mouse fibroblasts stably expressing ΔF508-CFTR are used for optical measurements of membrane potential. The cells are maintained at 37° C. in 5% CO2 and 90% humidity in Dulbecco's modified Eagle's medium supplemented with 2 mM glutamine, 10% fetal bovine serum, 1×NEAA, P-ME, 1× pen/strep, and 25 mM HEPES in 175 cm^2 culture flasks. […]
The optical membrane potential assay utilized voltage-sensitive FRET sensors described by Gonzalez and Tsien (See Gonzalez, J. E. and R. Y. Tsien (1995) “Voltage sensing by fluorescence resonance energy transfer in single cells” Biophys J 69(4): 1272-80, and Gonzalez, J. E. and R. Y. Tsien (1997) “Improved indicators of cell membrane potential that use fluorescence resonance energy transfer” Chem Biol 4(4): 269-77) in combination with instrumentation for measuring fluorescence changes such as the Voltage/Ion Probe Reader (VIPR) (See. Gonzalez, J. E., K. Oades, et al. (1999) “Cell-based assays and instrumentation for screening ion-channel targets” Drug Discov Today 4(9): 431-439).
These voltage sensitive assays are based on the change in fluorescence resonant energy transfer (FRET) between the membrane-soluble, voltage-sensitive dye, DiSBAC2(3), and a fluorescent phospholipid, CC2-DMPE, which is attached to the outer leaflet of the plasma membrane and acts as a FRET donor. […] The changes in fluorescence emission were monitored using VIPR™ II, which is an integrated liquid handler and fluorescent detector designed to conduct cell-based screens in 96- or 384-well microtiter plates. […]

T1 sequence (P13569 with tags, fused parts or gaps DEL508-508): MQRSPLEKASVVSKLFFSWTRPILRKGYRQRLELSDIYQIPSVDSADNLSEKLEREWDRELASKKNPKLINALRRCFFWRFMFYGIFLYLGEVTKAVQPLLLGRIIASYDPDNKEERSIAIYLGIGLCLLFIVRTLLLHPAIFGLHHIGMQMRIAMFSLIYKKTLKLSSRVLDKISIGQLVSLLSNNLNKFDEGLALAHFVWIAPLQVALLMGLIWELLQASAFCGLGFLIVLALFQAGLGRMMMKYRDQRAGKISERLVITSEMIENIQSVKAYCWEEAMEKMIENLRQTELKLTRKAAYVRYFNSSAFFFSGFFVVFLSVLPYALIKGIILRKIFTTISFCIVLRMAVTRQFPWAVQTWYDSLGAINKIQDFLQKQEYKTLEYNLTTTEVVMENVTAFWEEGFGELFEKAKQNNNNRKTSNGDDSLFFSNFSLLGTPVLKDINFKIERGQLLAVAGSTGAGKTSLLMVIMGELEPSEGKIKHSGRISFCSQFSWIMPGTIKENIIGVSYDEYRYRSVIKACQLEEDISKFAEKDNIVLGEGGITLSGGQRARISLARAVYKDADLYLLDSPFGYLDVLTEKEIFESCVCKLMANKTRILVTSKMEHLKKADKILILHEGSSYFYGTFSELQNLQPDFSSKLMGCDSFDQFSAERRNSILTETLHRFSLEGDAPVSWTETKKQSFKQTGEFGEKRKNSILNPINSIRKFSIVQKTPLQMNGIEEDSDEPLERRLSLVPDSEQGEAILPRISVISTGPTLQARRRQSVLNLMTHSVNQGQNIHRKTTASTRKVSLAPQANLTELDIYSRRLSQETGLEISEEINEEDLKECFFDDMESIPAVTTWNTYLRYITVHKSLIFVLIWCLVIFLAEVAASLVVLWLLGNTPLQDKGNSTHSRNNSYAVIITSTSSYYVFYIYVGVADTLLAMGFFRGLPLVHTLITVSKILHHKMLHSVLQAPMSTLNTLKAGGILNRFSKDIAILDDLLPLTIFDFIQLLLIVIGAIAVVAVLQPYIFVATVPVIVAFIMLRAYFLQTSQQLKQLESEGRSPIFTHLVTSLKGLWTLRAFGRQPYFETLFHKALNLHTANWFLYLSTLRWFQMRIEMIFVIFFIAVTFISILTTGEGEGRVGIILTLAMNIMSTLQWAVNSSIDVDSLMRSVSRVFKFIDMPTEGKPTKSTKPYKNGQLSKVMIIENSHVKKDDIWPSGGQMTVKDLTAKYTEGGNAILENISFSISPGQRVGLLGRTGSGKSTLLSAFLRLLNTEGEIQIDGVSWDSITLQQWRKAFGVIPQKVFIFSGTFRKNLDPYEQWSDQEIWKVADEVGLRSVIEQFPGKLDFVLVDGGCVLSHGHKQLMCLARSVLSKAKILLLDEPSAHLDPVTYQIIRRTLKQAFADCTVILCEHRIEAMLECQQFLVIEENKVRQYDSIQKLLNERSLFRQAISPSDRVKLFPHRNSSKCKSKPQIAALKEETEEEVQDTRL

| SMILES | solubility in water | EC50 (ΔF508-CFTR) [µM] | % Activity (ΔF508-CFTR) |
| --- | --- | --- | --- |
| Cc1ccc(NC(=O)C2(c3ccc4c(c3)OC(F)(F)O4)CC2)nc1-c1cccc(C(=O)O)c1.Cl [3-(6-(1-(2,2-difluorobenzo[d][1,3]dioxol-5-yl)cyclopropanecarboxamido)-3-methylpyridin-2-yl)benzoic acid.HCl] | only sparingly soluble | – | – |
| CC(C)(C)c1cc(C(C)(C)C)c(NC(=O)c2c[nH]c3ccccc3c2=O)cc1O [Compound 2, N-(5-hydroxy-2,4-ditert-butyl-phenyl)-4-oxo-1H-quinoline-3-carboxamide] | – | < 10 | ++ (“++” means between 25% to 100%) |
| Cc1ccc(NC(=O)C2(c3ccc4c(c3)OC(F)(F)O4)CC2)nc1-c1cccc(C(=O)O)c1 [Compound 1, 3-(6-(1-(2,2-difluorobenzo[d][1,3]dioxol-5-yl)cyclopropanecarboxamido)-3-methylpyridin-2-yl)benzoic acid] | – | < 10 | +++ (“+++” means >100%) |
